Measurements as given in ChEMBL document CHEMBL3872239, “Studies relating to the synthesis, enzymatic reduction and cytotoxicity of a series of nitroaromatic prodrugs” (Bioorg Med Chem Lett, 2016).

How the values were obtained:
[1] = target: T1, NAD(P)H dehydrogenase [quinone] 1 (Homo sapiens, UniProt P15559); test: Prodrug activation assessed as human NQO1-mediated compound reduction by measuring specific enzyme activity at 100 uM measured every 20 mins by HPLC based UV-Vis method relative to CB1954
T1 sequence (P15559 whole entry): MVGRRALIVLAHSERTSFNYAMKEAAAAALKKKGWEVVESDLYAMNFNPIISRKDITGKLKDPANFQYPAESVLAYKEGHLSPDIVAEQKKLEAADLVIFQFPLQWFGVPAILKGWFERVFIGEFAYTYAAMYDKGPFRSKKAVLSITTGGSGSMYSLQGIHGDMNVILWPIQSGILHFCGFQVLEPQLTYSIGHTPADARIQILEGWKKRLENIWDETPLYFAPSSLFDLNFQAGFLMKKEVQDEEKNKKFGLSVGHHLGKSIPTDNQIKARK

[2] = Prodrug activation assessed as Escherichia coli NR-mediated compound reduction by measuring specific enzyme activity at 100 uM measured every 20 mins by HPLC based UV-vis method relative to CB1954
[3] = Prodrug activation assessed as Escherichia coli NR-mediated compound reduction by measuring specific enzyme activity at 100 uM measured every 20 mins by HPLC based UV-Vis method
[4] = Cytotoxicity against Chinese hamster F179 transformed cells assessed as reduction in cell viability after 3 days by SRB assay; type: toxicity, cell-based, Cricetulus griseus
[5] = Cytotoxicity against Chinese hamster DT7 cells expressing human NQO1 assessed as reduction in cell viability after 3 days by SRB assay; type: functional, cell-based, Cricetulus griseus
[6] = Cytotoxicity against Chinese hamster T116 cells expressing Escherichia coli Nitroreductase assessed as reduction in cell viability after 3 days by SRB assay; type: functional, Cricetulus griseus
[7] = Cytotoxicity against Chinese hamster 186/6 cells expressing rat NQO1 assessed as reduction in cell viability after 3 days by SRB assay; type: functional, cell-based, Cricetulus griseus
[8] = target: T1, NAD(P)H dehydrogenase [quinone] 1; test: Prodrug activation assessed as human NQO1-mediated compound reduction by measuring specific enzyme activity at 100 uM measured every 20 mins by HPLC based UV-Vis method
[9] = Drug metabolism assessed as Escherichia coli NR-mediated compound reduction by measuring specific enzyme activity at 100 uM measured every 20 mins by HPLC based UV-Vis method; type: ADME
[10] = target: T1, NAD(P)H dehydrogenase [quinone] 1; test: Drug metabolism assessed as human NQO1-mediated compound reduction by measuring specific enzyme activity at 100 uM measured every 20 mins by HPLC based UV-Vis method; type: ADME

Compound | fold change (FC) [1] | fold change (FC) [2] | Activity [3] [µmol/min/mg] | IC50 [4] [µM] | IC50 [5] [µM] | IC50 [6] [µM] | IC50 [7] [µM] | Activity [8] [µmol/min/mg] | Activity [9] [µmol/min/mg] | Activity [10] [µmol/min/mg]
O=[N+]([O-])c1ccc(N2Cc3ccccc3CC2CCl)c(C(F)(F)F)c1 (stereo unspecified) | 4.355 | 0.089 | 0.166 | 37.8 | 27.5 | 3.1 | 22.6 | 0.027 | – | –
O=[N+]([O-])c1ccc(N2Cc3ccccc3CC2CCl)cc1 (stereo unspecified) | < 0.01 | < 0.001 | < 0.01 | 3.3 | 2.8 | 3.1 | 2.9 | < 0.0001 | – | –
O=[N+]([O-])c1ccc(N2Cc3ccccc3CC2CCl)c([N+](=O)[O-])c1 (stereo unspecified) | 0.532 | 0.137 | 0.254 | 49 | 43.1 | 1.2 | 36.6 | 0.0033 | – | –
O=[N+]([O-])c1ccc(N2Cc3ccccc3CC2CCl)cc1C(F)(F)F (stereo unspecified) | 1.936 | 0.057 | 0.106 | 7.3 | 5.9 | 2.9 | 5.8 | 0.012 | – | –
O=[N+]([O-])c1cc(C(F)(F)F)ccc1N1Cc2ccccc2CC1CCl (stereo unspecified) | 2.855 | < 0.001 | < 0.01 | 36.6 | 31.2 | 39.1 | 34.4 | 0.0177 | – | –
NC(=O)c1cc(N2CC2)c([N+](=O)[O-])cc1[N+](=O)[O-] [TRETAZICAR] | – | – | – | 196 | 1.5 | 0.03 | 0.05 | – | 1.86 | 0.0062
